The values below come from ChEMBL document CHEMBL1127341, “Synthesis and biological evaluation of 5-[[3,5-bis(1,1-dimethylethyl)- 4-hydroxyphenyl]methylene]oxazoles, -thiazoles, and -imidazoles: novel dual 5-lipoxygenase and cyclooxygenase inhibitors with antiinflammatory activity” (J Med Chem, 1994).

The structures appear in SMILES notation.

In test [1] the target is T1, Polyunsaturated fatty acid 5-lipoxygenase (Rattus norvegicus, UniProt P12527).
T1 sequence (P12527 whole entry): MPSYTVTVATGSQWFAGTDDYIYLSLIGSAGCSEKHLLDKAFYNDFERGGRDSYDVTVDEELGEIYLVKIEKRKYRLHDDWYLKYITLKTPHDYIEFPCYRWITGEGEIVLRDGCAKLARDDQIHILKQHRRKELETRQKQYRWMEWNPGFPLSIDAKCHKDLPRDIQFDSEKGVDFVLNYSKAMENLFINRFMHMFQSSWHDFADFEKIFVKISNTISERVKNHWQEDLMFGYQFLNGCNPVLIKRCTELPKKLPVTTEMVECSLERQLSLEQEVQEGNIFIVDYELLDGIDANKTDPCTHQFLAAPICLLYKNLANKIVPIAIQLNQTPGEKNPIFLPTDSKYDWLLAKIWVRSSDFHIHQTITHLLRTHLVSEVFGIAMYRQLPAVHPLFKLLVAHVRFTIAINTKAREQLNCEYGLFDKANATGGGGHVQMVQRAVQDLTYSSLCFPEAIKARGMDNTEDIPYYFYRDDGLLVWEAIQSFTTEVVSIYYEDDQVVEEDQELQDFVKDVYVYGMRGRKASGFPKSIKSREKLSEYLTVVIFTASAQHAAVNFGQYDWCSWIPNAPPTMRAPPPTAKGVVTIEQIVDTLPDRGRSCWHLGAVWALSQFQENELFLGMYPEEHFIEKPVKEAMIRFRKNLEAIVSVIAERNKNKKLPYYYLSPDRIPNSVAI
Kind of test: Inhibitory activity against 5-lipoxygenase in intact rat basophilic leukemia cells stimulated with the calcium ionophore A-23187; Inactive(N)= <50% inhibition at 10 uM. Format: cell-based. To be noted: rbl-1.

For test [2], the target named is T2, Polyunsaturated fatty acid 5-lipoxygenase (Rattus norvegicus) (UniProt P12527).
T2 sequence (whole entry): T1 sequence (P12527 whole entry)
Kind of test: Inhibitory activity at 1 uM against 5-lipoxygenase in intact rat basophilic leukemia cells stimulated with the calcium ionophore A-23187. Format: cell-based. The conditions noted are these: RBL-1.

The subject of test [3] is Rattus norvegicus. Description: 40% inhibition of induced edema in the rat mycobacterium foot-pad edema test. Format: functional.
The subject of test [4] is Rattus norvegicus. Kind of test: Inhibition of rat carrageenan induced foot-pad edema at a dose of 10 mg/kg on peroral administration. Format: functional. To be noted: route oral. (In general: In the carrageenan paw model, swelling and tenderness develop within hours.)
Test [5] relates to Rattus norvegicus. Description: Inhibition of rat carrageenan induced foot-pad edema at a dose of 30 mg/kg on peroral administration. To be noted: route oral. Format: functional.
For test [6], the target named is T3, Cyclooxygenase (Rattus norvegicus) (UniProt P35355+Q63921). Kind of test: Inhibitory activity against Prostaglandin G/H synthase in intact rat basophilic leukemia cells stimulated with the calcium ionophore A-23187 at 10 uM. Format: cell-based. To be noted: RBL-1.
T3 sequence (P35355 whole entry, looked up): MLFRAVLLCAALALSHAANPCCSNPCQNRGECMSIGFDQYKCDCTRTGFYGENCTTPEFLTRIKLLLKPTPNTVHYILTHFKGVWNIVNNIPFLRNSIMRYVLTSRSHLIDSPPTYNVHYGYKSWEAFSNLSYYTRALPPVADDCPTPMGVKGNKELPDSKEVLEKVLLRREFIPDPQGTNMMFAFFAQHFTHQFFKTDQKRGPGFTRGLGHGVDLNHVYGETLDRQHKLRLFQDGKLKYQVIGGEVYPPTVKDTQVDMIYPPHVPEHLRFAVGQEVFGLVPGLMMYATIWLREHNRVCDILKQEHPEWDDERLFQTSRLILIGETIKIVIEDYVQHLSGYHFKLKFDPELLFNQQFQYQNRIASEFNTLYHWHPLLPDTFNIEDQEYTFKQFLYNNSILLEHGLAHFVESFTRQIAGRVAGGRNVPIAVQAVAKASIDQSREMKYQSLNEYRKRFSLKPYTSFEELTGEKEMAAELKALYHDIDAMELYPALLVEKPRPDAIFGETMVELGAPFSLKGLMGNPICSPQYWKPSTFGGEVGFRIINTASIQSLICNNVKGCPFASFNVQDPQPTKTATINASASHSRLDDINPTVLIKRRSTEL
T3 sequence (Q63921 whole entry, looked up): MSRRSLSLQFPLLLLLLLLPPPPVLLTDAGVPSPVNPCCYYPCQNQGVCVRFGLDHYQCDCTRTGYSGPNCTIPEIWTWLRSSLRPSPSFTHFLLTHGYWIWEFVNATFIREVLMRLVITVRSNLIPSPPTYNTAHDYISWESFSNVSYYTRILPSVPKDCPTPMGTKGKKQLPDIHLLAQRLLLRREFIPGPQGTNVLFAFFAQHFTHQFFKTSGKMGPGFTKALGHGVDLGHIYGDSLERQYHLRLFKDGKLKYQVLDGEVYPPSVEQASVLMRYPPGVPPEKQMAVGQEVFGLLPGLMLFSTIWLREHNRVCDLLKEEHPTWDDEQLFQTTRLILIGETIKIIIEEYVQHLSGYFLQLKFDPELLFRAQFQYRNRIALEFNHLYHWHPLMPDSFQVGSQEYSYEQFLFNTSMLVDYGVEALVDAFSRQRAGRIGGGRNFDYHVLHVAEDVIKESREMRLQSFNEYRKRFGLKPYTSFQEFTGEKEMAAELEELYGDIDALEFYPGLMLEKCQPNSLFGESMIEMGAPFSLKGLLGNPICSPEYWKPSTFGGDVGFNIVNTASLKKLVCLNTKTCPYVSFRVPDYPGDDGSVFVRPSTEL
Test [7] deals with T1, Polyunsaturated fatty acid 5-lipoxygenase.
Test [8] concerns the target T2, Polyunsaturated fatty acid 5-lipoxygenase (Rattus norvegicus). Kind of test: Inhibitory activity against 5-lipoxygenase in intact rat basophilic leukemia cells stimulated with the calcium ionophore A-23187. The class given is cell-based. To be noted: RBL-1; concentration not given here.
The target of test [9] is T1, Polyunsaturated fatty acid 5-lipoxygenase. Kind of test: Inhibitory activity against 5-lipoxygenase in intact rat basophilic leukemia cells stimulated with the calcium ionophore A-23187; N=Inactive. To be noted: rbl-1. The class given is cell-based.
Test [10] deals with T3, Cyclooxygenase (Rattus norvegicus). Description: Inhibitory activity at 10 uM against Prostaglandin G/H synthase in intact rat basophilic leukemia cells stimulated with the calcium ionophore A-23187. To be noted: RBL-1. The class given is cell-based.

Usually IC50 stands for the concentration at which inhibition is half-maximal. For `CNC1=NC(=O)/C(=C/c2cc(C(C)(C)C)c(O)c(C(C)(C)C)c2)S1`, the IC50 entry in [1] is “Inactive”.
What is called inhibition is the relative decrease from the control value, in per cent. `CN(C)C(=N)NC1=NC(=O)/C(=C/c2cc(C(C)(C)C)c(O)c(C(C)(C)C)c2)S1`: the inhibition in test [2] turned out to be 100%.
One may read the inhibition in vivo as the percentage by which the read-out fell short of the control. Take `Cc1ccc(Cl)c(Nc2ccccc2C(=O)[O-])c1Cl.O.[Na+]` [MECLOFENAMATE SODIUM]: the ID40 in the test with Rattus norvegicus [3] is 0.4 mg/kg. In the test on Rattus norvegicus [4], this molecule displayed an inhibition in vivo at 10 mg/kg of 34%. This molecule yielded an inhibition in vivo at 30 mg/kg with Rattus norvegicus [5] of 41%.
Regarding `C/C(=C1/SC(=O)NC1=O)c1cc(C(C)(C)C)c(O)c(C(C)(C)C)c1`, in test [6], the inhibition was 52%. Moreover, in test [7], the IC50 amounted to 480 nM.
As for `CN(C)C1=NC(=O)/C(=C/c2cc(C(C)(C)C)c(O)c(C(C)(C)C)c2)S1`, in [8], the inhibition was 65%.
Take `CONC1=NC(=O)/C(=C/c2cc(C(C)(C)C)c(O)c(C(C)(C)C)c2)S1`: the IC50 result in test [9] is given as “Not Active”.
Turning to `O=C1NC(=O)/C(=C/c2cc(I)c(O)c(I)c2)S1`, the IC50 result in test [1] is on record as “Inactive”. Moreover, the inhibition in [10] came to 60%.
With `O=C1NC(=O)/C(=C/c2ccc(O)cc2)S1`, the IC50 result in [9] is on record as “Not Active”.
